Reference: PubChem BioAssay (NCI)
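Cells were grown in 96-well plates and exposed to each compound for 48 hours at five concentrations; endpoints were interpolated linearly between bracketing concentrations, or set to the highest concentration if not reached. TGI: concentration producing complete growth inhibition.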

Experiments:
Experiment in all cases: NCI tumour cell line growth inhibition, 48 h
[1] = tested on: P388/ADR leukemia
[2] = tested on: DLD-1 colon
[3] = tested on: XF 498 CNS
[4] = tested on: DMS 273 small cell lung
[5] = tested on: DMS 114 small cell lung
[6] = tested on: P388 leukemia
[7] = tested on: SN12K1 renal
[8] = tested on: RXF-631 renal
[9] = tested on: LXFL 529 NSCLC

Structure (SMILES) | TGI [1] | TGI [2] | TGI [3] | TGI [4] | TGI [5] | TGI [6] | TGI [7] | TGI [8] | TGI [9]
CCCCN(C)/N=N/c1nc[nH]c1C(N)=O | > 100 µM | > 100 µM | 95.5 µM | > 100 µM | > 100 µM | > 100 µM | > 100 µM |  | 
N/C(=N\N=C\c1ncccc1O)NO | 11.5 µM | > 100 µM | 69.2 µM | > 59.4 µM | > 100 µM | 12.8 µM | > 69 µM |  | 
COc1ccc(Oc2ccccc2N)cc1 |  | > 100 µM |  | > 100 µM | > 100 µM |  |  | > 100 µM | > 100 µM
CCC(=O)OC1CCn2c1nc1c2C(=O)C(C)=C(NC(C)=O)C1=N (configuration not stated) |  | 3.19 µM | 4.31 µM | 3.11 µM | 3.53 µM |  |  |  | 
Cc1c2ccncc2c(C)c2c1[nH]c1ccc(OCCN(C)C)cc12 | 0.128 µM | 0.718 µM | 2.19 µM | 0.321 µM |  | 0.0675 µM | 0.381 µM |  | 
[N-]=[N+]=NCC(O)Cn1cnc2c(NC(=O)c3ccccc3)ncnc21 (configuration not stated) |  | > 100 µM | > 100 µM | > 100 µM | > 100 µM |  |  |  | > 100 µM
O=C(Nc1nn[nH]n1)c1nc(-c2ccccc2)cc(=O)[nH]1 |  | > 100 µM | > 100 µM |  | > 100 µM |  |  |  | > 100 µM
CC1(C)O[C@@H](C[C@]2(C#N)C[C@H](CCl)OC(C)(C)O2)C[C@@H](C#N)O1 |  | > 100 µM | > 100 µM | > 100 µM | > 100 µM |  |  |  | 
O=C1C2C=CC(n3[nH]c(=O)n(Cc4ccccc4)c3=O)CC2C(=O)N1c1ccc(Br)cc1 (configuration not stated) |  | > 100 µM |  | > 100 µM | > 100 µM |  |  |  | > 100 µM
CCOC(=O)C1=C(O)c2ccc(C)cc2C(=O)C1=O |  | > 100 µM | > 100 µM | > 100 µM | > 100 µM |  |  |  | 
C=C1C(C)C2C(Cc3ccccc3)NC(=O)C23OC(=O)/C=C\CC(=O)CCC(C)C/C=C/C3C1O (configuration not stated) | 2.1 µM | 3.36 µM | 1.07 µM | 14.1 µM | 6.61 µM | 0.385 µM | 3.43 µM |  | 
